These results are taken from US8158647B2, “Substituted pyrrolopyridines and pyrazolopyridines as kinase modulators” (SGX Pharmaceuticals, Inc., priority 2007, dated 2012).

For experiment [1], the target named is T1, purified and unphosphorylated T315I Abl kinase domain (ABL_T315I_0P) (Mus musculus, UniProt P00520, T315I).
T1 construct: The c-Abl T3151 KD (kinase domain) was purified as follows; Met-Ser-Leu (vector-derived residues) (N); made in house; host or cells: E. coli BL21(DE3) strains (Codon+RIL, or pSA0145 for the lambda phosphatase co-expression plasmid)
T1 sequence (P00520 242-493 T315I limits assumed): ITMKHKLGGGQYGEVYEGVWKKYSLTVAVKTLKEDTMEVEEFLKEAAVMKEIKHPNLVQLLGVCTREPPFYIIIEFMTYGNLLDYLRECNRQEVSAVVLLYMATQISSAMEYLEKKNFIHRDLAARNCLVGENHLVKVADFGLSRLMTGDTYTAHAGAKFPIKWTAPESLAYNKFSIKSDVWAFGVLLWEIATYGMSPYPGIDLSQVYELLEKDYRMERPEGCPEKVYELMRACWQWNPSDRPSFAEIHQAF
The experiment is described as follows: c-Abl T315I (unphosphorylated kinase domain) pyruvate kinase/lactate dehydrogenase coupled enzyme assay. The format is biochemical. To be noted: 10 μM ATP. The text has this: Although the first of these examples uses the kinase domain of a mutant form of Abl T315I (“Abl T315I KD”), the kinase assays may use various forms of mutant and wild type enzymes, including, for example, the entire protein, the kinase domain, or a portion thereof (e.g. Abl Y393F). The kinases used in the assays may also be of varying phosphorylation states. In the c-Abl example, a mutant kinase at a zero phosphorylation state was used.
c-Abl Pyruvate Kinase/Lactate Dehydrogenase Coupled Enzyme Assay
In the c-Abl Pyruvate Kinase (PK)/Lactate Dehydrogenase (LDH) Coupled Assay the protein kinase dependant phosphorylation of a substrate peptide was coupled to the oxidation of NADH. The oxidation of NADH to NAD+ was detected by monitoring a decrease in absorbance at 340 nm.
Materials: Abl substrate peptide=EAIYAAPFAKKK-OH (SEQ ID NO: 1) (Biopeptide, San Diego, Calif.); […]NADH (Sigma Cat#N-8129, FW=709.4); 2M MgCl2; 1M HEPES buffer, pH 7.5; Phosphoenolpyruvate (PEP) (Sigma Cat#P-7002, FW=234); Lactate dehydrogenase (LDH) (Worthington Biochemical Cat#2756); Pyruvate Kinase (PK) (Sigma Cat#P-9136); ATP (Sigma Cat#A-3377, FW=551); Greiner 384-well UV star plate; and purified and unphosphorylated T3151 Abl kinase domain.
Stock Solutions: 10 mM NADH (7.09 mg/ml in miliQH2O) made fresh daily; 10 mM Abl substrate peptide (13.4 mg/ml in miliQH2O) stored at −20° C.; 100 mM HEPES buffer, pH 7.5 (5 ml 1M stock+45 ml miliQH2O); 100mM MgCl2 (5 ml 2M MgCl2+95 ml dH2O); 100 mM PEP (23.4 mg/ml in dH2O) stored at −20° C.; 10mM ATP (5.51 mg/ml in dH2O) stored at −20° C. (diluted 50 μl into total of 10 ml miliQH2O daily=50 μM ATP working stock); 1000 U/ml PK (U/mg varies with lot) flash-frozen under liquid N2 and stored at −80° C.; and 1000 U/ml LDH (U/mg varies with lot) flash-frozen under liquid N2 and stored at −80° C.
Standard Assay Setup for 384-well format (50 μl reaction): 300 μM NADH; 10 mM MgCl2; 2 mM PEP; 45 U/ml PK; 60 U/ml LDH; 200 μM Abl substrate peptide; 2.5 μl test compound (in DMSO); 2 μg/ml Abl kinase domain; 10 μM ATP; 100 mM HEPES buffer. Positive controls contained DMSO with no test compound. Negative controls contained 5 μl of 0.5M EDTA (50 mM in the assay). The dephosphorylated form of the c-Abl T315I mutant was used in the biochemical screening assays. The kinase reaction was initiated at time t=0 by the addition of ATP.
Activity was measured by following the time-dependent loss of NADH by absorbance spectroscopy at 340 nm. The linear portion of the resulting progress curve was then analyzed by linear regression to get the activity in absorbance units/time, reported as the slope of that best fit line (moles/unit time can be calculated from using molar extinction coefficient for NADH at 340 nm, 6250M^−1 cm^−1).
Screening data was evaluated using the equation: Z′=1-[3*(σ++σ−)/|μ+−μ−|] (Zhang, et al., 1999 J Biomol Screening 4(2) 67-73), where μ denotes the mean and σ the standard deviation. The subscript designates positive or negative controls. The Z′ score for a robust screening assay should be ≧0.50. The typical threshold=μ+−3*σ+−. Any value that falls below the threshold was designated a “hit”.
Dose response was analyzed using the equation: y=min+{(max−min)/(1+10^[compound]−logIC50)}, where y is the observed initial slope, max=the slope in the absence of inhibitor, min=the slope at infinite inhibitor, and the IC50 is the [compound] that corresponds to ½ the total observed amplitude (Amplitude=max−min).
To measure modulation, activation, or inhibition of Abl KD, a test compound was added to the assay at a range of concentrations. Inhibitors may inhibit Abl KD activity at an IC50 in the micromolar range, the nanomolar range, or, for example, in the subnanomolar range.
An open-reading frame for c-Abl was amplified from a Mus musculus (mouse) cDNA library prepared from freshly harvested mouse liver using a commercially available kit (Invitrogen) by PCR using the following primers: […]
The c-Abl T3151 KD (kinase domain) was purified as follows. […]

For another experiment, the target named is T2, ABL P210WT BAF3 cells (Homo sapiens, UniProt P00519).
T2 construct: ABL P210WT BAF3; fused on or other part: P11274 (Breakpoint cluster region protein)
The experiment is described as follows: 96-well XTT cell survival assay, BaF3 ABL P210WT. The format is cell-based. Particulars: ABL P210 WT, 72 hours, read-out: CELL BIO ABL P210WT BAF3 XTT (IC50). As for the experimental part:
(§1) MV4-11 and THP cells were maintained in Iscove's Modified Dulbecco's Medium supplemented with 10% fetal bovine serum (FBS) and penicillin/streptomycin, Ba/F3 cells were maintained in RPMI 1640 supplemented with 10% FBS, penicillin/streptomycin and 5 ng/ml recombinant mouse IL-3.
(§2) Compounds were tested in the following assays in duplicate.
(§3) 96-well XTT assay: Cells (e.g. BaF3 315I, M3511, or E255K cells) were grown in growth media containing various concentrations of compounds (duplicates) on a 96-well plate for 72 hours at 37° C. The starting cell number was 5000-8000 cells per well and volume was 120 μl. At the end of the 72-hour incubation, 40 μl of XTT labeling mixture (50:1 solution of sodium 3′-[1-(phenylamino-carbonyl)-3,4-tetrazolium]-bis(4-methoxy-6-nitro) benzene sulfonic acid hydrate and Electron-coupling reagent: PMS (N-methyl dibenzopyrazine methyl sulfate) were added to each well of the plate. After an additional 2-6 hours of incubation at 37° C., the absorbance reading at 405 nm with background correction at 650 nm was measured with a spectrophotometer.

In a further experiment the target is T3, ABL T315I BAF3 cells (Homo sapiens, UniProt P00519, T315I, cells depend on it).
T3 construct: ABL T315I BAF3; fused on or other part: P11274 (Breakpoint cluster region protein)
The experiment is described as follows: 96-well XTT cell survival assay, BaF3 ABL T315I. The format is cell-based. Particulars: 72 hours, read-out: CELL BIO ABL T315I BAF3 XTT (IC50). Here is the method: as §1, §2, §3

As to `COc1cc(F)ccc1-c1c[nH]c2ncc(-c3cnc(N)c(C(=O)N(C)C)c3)c(Cl)c12` [2-Amino-5-[4-chloro-3-(4-fluoro-2-methoxy-phenyl)-1H-pyrrolo[2,3-b]pyridin-5-yl]-N,N-dimethyl-nicotinamide], the “ABL_T315I_0P (IC50)” value in experiment [1] was “D (<0.01 μM)”. Besides, the GI50 on ABL P210WT BAF3 cells and on ABL T315I BAF3 cells was 0.01 to 0.1 µM in each case.

With `COc1ccc(F)cc1-c1c[nH]c2ncc(-c3cnc(N)c(C(=O)N(C)C)c3)c(Cl)c12` [2-Amino-5-[4-chloro-3-(5-fluoro-2-methoxy-phenyl)-1H-pyrrolo[2,3-b]pyridin-5-yl]-N,N-dimethyl-nicotinamide], the “ABL_T315I_0P (IC50)” value in experiment [1] is listed as “D (<0.01 μM)”. Further, the GI50 on ABL P210WT BAF3 cells and on ABL T315I BAF3 cells was under 0.01 µM each time.

As for `COc1ccccc1-c1c[nH]c2ncc(-c3cncc(C(O)C(=O)N(C)C)c3)c(C)c12` (stereo not drawn) [2-Hydroxy-2-{5-[3-(2-methoxy-phenyl)-4-methyl-1H-pyrrolo[2,3-b]pyridin-5-yl]-pyridin-3-yl}-N,N-dimethyl-acetamide], in experiment [1], the “ABL_T315I_0P (IC50)” value is “D (<0.01 μM)”. Moreover, the GI50 at ABL P210WT BAF3 cells and on ABL T315I BAF3 cells was 0.01 to 0.1 µM throughout.

As to `CNc1c(-c2cncc(C(O)C(=O)N(C)C)c2)cnc2[nH]cc(-c3ccccc3OC)c12` (stereo not drawn) [2-Hydroxy-2-{5-[3-(2-methoxy-phenyl)-4-methylamino-1H-pyrrolo[2,3-b]pyridin-5-yl]-pyridin-3-yl}-N,N-dimethyl-acetamide], the “ABL_T315I_0P (IC50)” value in experiment [1] was “D (<0.01 μM)”. Further, the GI50 on ABL P210WT BAF3 cells and on ABL T315I BAF3 cells was 0.1 to 1 µM in each case.

As to `COc1ccccc1-c1c[nH]c2ncc(-c3cncc(C(O)C(=O)N(C)C)c3)c(SC)c12` (stereo not drawn) [2-Hydroxy-2-{5-[3-(2-methoxy-phenyl)-4-methylsulfanyl-1H-pyrrolo[2,3-b]pyridin-5-yl]-pyridin-3-yl}-N,N-dimethyl-acetamide], the “ABL_T315I_0P (IC50)” value in experiment [1] is reported as “D (<0.01 μM)”. Further, the GI50 at ABL P210WT BAF3 cells lay within 0.1 to 1 µM; on ABL T315I BAF3 cells, 0.01 to 0.1 µM.

With `COc1ccccc1-c1c[nH]c2ncc(-c3cncc(C(O)C(=O)N(C)C)c3)c(C(F)(F)F)c12` (stereo not drawn) [2-Hydroxy-2-{5-[3-(2-methoxy-phenyl)-4-trifluoromethyl-1H-pyrrolo[2,3-b]pyridin-5-yl]-pyridin-3-yl}-N,N-dimethyl-acetamide], the “ABL_T315I_0P (IC50)” value in experiment [1] is reported as “D (<0.01 μM)”. Also, the GI50 on ABL P210WT BAF3 cells and at ABL T315I BAF3 cells was 0.01 to 0.1 µM in each case.

As for `COc1ccccc1-c1c[nH]c2ncc(-c3cncc(C(O)C(=O)N(C)C)c3)c(O)c12` (stereo not drawn) [2-Hydroxy-2-{5-[4-hydroxy-3-(2-methoxy-phenyl)-1H-pyrrolo[2,3-b]pyridin-5-yl]-pyridin-3-yl}-N,N-dimethyl-acetamide], in experiment [1], the “ABL_T315I_0P (IC50)” value is reported as “C (0.1-0.01 μM)”. For the same molecule, the GI50 on ABL P210WT BAF3 cells and on ABL T315I BAF3 cells was over 1 µM in each case.

On to `COc1ccccc1-c1c[nH]c2ncc(-c3cncc(C(O)C(=O)N(C)C)c3)c(OC)c12` (stereo not drawn) [2-Hydroxy-2-{5-[4-methoxy-3-(2-methoxy-phenyl)-1H-pyrrolo[2,3-b]pyridin-5-yl]-pyridin-3-yl}-N,N-dimethyl-acetamide], for which the “ABL_T315I_0P (IC50)” value in experiment [1] is recorded as “D (<0.01 μM)”. Besides, the GI50 at ABL P210WT BAF3 cells and at ABL T315I BAF3 cells was 0.01 to 0.1 µM in each case.

Regarding `CN(C)C(=O)C(O)c1cncc(-c2cnc3[nH]cc(-c4ccccc4)c3c2Cl)c1` (stereo not drawn) [2-[5-(4-Chloro-3-phenyl-1H-pyrrolo[2,3-b]pyridin-5-yl)-pyridin-3-yl]-2-hydroxy-N,N-dimethyl-acetamide], the “ABL_T315I_0P (IC50)” value in experiment [1] is “D (<0.01 μM)”. The GI50 at ABL P210WT BAF3 cells and on ABL T315I BAF3 cells was 0.1 to 1 µM in each case.

Consider `CN(C)C(=O)Cc1cncc(-c2cnc3[nH]cc(-c4ccccc4)c3c2Cl)c1` [2-[5-(4-Chloro-3-phenyl-1H-pyrrolo[2,3-b]pyridin-5-yl)-pyridin-3-yl]-N,N-dimethyl-acetamide], for which the “ABL_T315I_0P (IC50)” value in experiment [1] is given as “D (<0.01 μM)”. Moreover, the GI50 at ABL P210WT BAF3 cells and at ABL T315I BAF3 cells was over 1 µM in each case.

`COc1ccccc1-c1c[nH]c2ncc(-c3cncc(C(O)C(=O)N(C)C)c3)c(N)c12` (stereo not drawn) [2-{5-[4-Amino-3-(2-methoxy-phenyl)-1H-pyrrolo[2,3-b]pyridin-5-yl]-pyridin-3-yl}-2-hydroxy-N,N-dimethyl-acetamide]: the “ABL_T315I_0P (IC50)” value in experiment [1] is on record as “D (<0.01 μM)”. Besides, the GI50 on ABL P210WT BAF3 cells and at ABL T315I BAF3 cells was 0.1 to 1 µM in each case.

Take `CN(C)C(=O)C(O)c1cncc(-c2cnc3[nH]cc(-c4cccc(F)c4F)c3c2Cl)c1` (stereo not drawn) [2-{5-[4-Chloro-3-(2,3-difluoro-phenyl)-1H-pyrrolo[2,3-b]pyridin-5-yl]-pyridin-3-yl}-2-hydroxy-N,N-dimethyl-acetamide]: the “ABL_T315I_0P (IC50)” value in experiment [1] is recorded as “D (<0.01 μM)”. In addition, the GI50 on ABL P210WT BAF3 cells and on ABL T315I BAF3 cells was 0.1 to 1 µM each time.

For `CN(C)C(=O)C(=O)c1cncc(-c2cnc3[nH]cc(-c4cccc(F)c4F)c3c2Cl)c1` [2-{5-[4-Chloro-3-(2,3-difluoro-phenyl)-1H-pyrrolo[2,3-b]pyridin-5-yl]-pyridin-3-yl}-N,N-dimethyl-2-oxo-acetamide], in experiment [1], the “ABL_T315I_0P (IC50)” value is “C (0.1-0.01 μM)”. In addition, the GI50 at ABL P210WT BAF3 cells and on ABL T315I BAF3 cells was over 1 µM each time.
